Results as given in patent US8778961B2, “O-methylated rapamycin derivatives for alleviation and inhibition of lymphoproliferative disorders” (The Trustees of the University of Pennsylvania, priority 2000, dated 2014).
Where “and” joins values, the source holds several entries; their conditions need not be identical. Identical values can stand only once.

Key:
[1] = toxicity study in BALB/c and SCID mice; assay type: in vivo; conditions: 5 milligrams per kilogram body weight per day
From the text: Five- to seven-week-old immunodeficient SCID mice (C.B-17 and ICR) were purchased from Taconic (Germantown, N.J.) and housed at the University of Pennsylvania Animal Facility under pathogen-free conditions in a laminar air flow unit and supplied with sterile food and water. In the toxicity studies, 5-7 week old inbred BALB/c mice (Taconic) were used in addition to the SCID mice.
(§1) Mice were sacrificed by exposure to FORANE™ (isoflurane, Ohmeda, Liberty Place, N.J.) on day 29 in the drug toxicity study, on day 40-55 in the tumor growth inhibition study or when tumors achieved approximately 2 centimeter diameter, or when ulceration of the skin, signs of severe respiratory distress, weakness, or lethargy appeared. Complete autopsy was performed on all mice at the end of the study regardless of their appearance. Tumor and internal organs (spleen, liver, lung, heart, kidney, small and large intestines, femoral bone for bone marrow) were fixed in 10% (v/v) formalin, embedded in paraffin, cut into […] sections, transferred to glass slides, and stained with hematoxylin and eosin. Representative tumor fragments were stained immunohistochemically by standard streptavidin-biotin complex technique using commercially available reagents (Research Genetics, Huntsville, Ala.), antibodies: anti-CD20 (L-26) and LMP-1 (both from DAKO, Carpinteria, Calif.) and Ki67 (mib1; Immunotech, Westbrook, Me.). EBV-encoded RNA (EBER-1), and detected using commercially available reagents.
Previous studies have shown that a minimal effective dose of SDZ RAD in rats was 5 milligrams per kilogram body weight per day and >5 milligrams per kilogram body weight per day in the in kidney and heart transplant model, respectively, when SDZ RAD was used as a single immunosuppressive agent (Schuurman et al., 1997, Transplantation 64:32-5; Schuler et al. 1997, Transplantation 64: 36-42). In order to determine if prolonged exposure to SDZ RAD is non-toxic for mice, both immunocompetent and immunodeficient, a cohort of normal BALB/c mice were treated with the above dose of SDZ RAD for 28 days. Ten treated and 5 control, untreated mice were used in this study. Later SCID mice which were transplanted with human PTLD-like lymphomas and treated with SDZ RAD for up to 55 days were evaluated. Seven treated and 5 control untreated SCID mice were evaluated in this experiment. After receiving the final dose of the drug, all mice were sacrificed and the following organs were harvested for histopathologic evaluation to investigate for possible toxic effects: liver, spleen, kidney, small intestine, large intestine, heart, lung, and femoral bone for bone marrow.

[2] = test system: 15A tumors; experiment: treatment of established xenotransplanted tumors in SCID mice; assay type: in vivo; conditions: 5 milligrams per kilogram daily gavage
Protocol: (§2) Establishment and passaging of the xenotransplanted tumors was performed as described (Douglas et al., 1998, Cytometry 32:57-65; Kawamata et al., 1998, Blood 91:561-569; Pepper et al., 1998, Leuk. Res. 22:439-444). To deplete macrophages and NK cells and to enhance tumor engraftment, SCID mice were injected intraperitoneally with 30-45 milligrams per kilogram of etoposide (Bedford Laboratories, Bedford, Ohio) 4 days prior to implantation of the human EBV^+ B-cell lines (Visonneau et al., 1998, Am. J. Path. 152:1299-1311). Ten million cells of each line employed (see results) were inoculated into mice either intraperitoneally or subcutaneously in 200 microliters of Dulbecco's Phosphate Buffered Saline (DPBS; BioWhittaker, Walkersville, Md.). Ascites or palpable subcutaneous tumors developed 3-5 weeks after cell injection.
(§3) Tumor treatment and growth inhibition experiments were performed using fragments of the established subcutaneous tumors (Pasqualucci et al., 1995, Blood 85:2139-2146, Visonneau et al., 1998, Am. J. Path. 152:1299-1311). For this purpose, mice were anesthetized with KETALAR™ (ketamine, Parke-Davis, Morris Plains, N.J.) by intraperitoneal injection of 100 milligrams per kilogram. Next, the primary tumor was aseptically removed and freed from necrotic, fatty and connective tissue and divided into small pieces of roughly equal size and 3-4 pieces per mouse were injected subcutaneously. Treatment of established tumors with SDZ RAD was started when tumors reached 5 millimeters diameter. In growth inhibition experiments, the treatment was initiated 3 days prior to the tumor implantation. Tumor volume in all experiments was determined from the equation: volume=0.4ab^2, where a and b designate respectively long and short diameter of the tumor. The transplanted mice were monitored for tumor growth for a period of up to 2 months. Five milligrams per kilogram of SDZ RAD was administered once a day by gavage as described (Schuurman et al., 1997, Transplantation 64:32-5; Schuler et al. 1997, Transplantation 64:36-42).
as §1
(§4) In order to determine the in vivo effect of SDZ RAD on PTLD-like cells, 15A, 20A, and A1 cell line tumors were implanted into 7-15 SCID mice per cell line. Treatment was initiated once the tumors reached 5 millimeters diameter, which corresponds to a volume of 50 cubic millimeters. SDZ RAD was administered by daily gavage at 5 milligrams per kilogram, which represents a non-toxic and effective immunosuppressive dose (Schuurman et al., 1997, Transplantation 64:32-5; Schuler et al. 1997, Transplantation 64:36-42).

[3] = test system: 20A tumors; experiment: as above; assay type: in vivo
Protocol: as §2, §3, §1, §4

[4] = test system: A1 cell line tumors; experiment: as above; assay type: in vivo
Protocol: as §2, §3, §1, §4

[5] = test system: HTLV-I (+) T-cell lines ATL-2, C10MJ2, HUT102B; conditions: Zhang et al., 1999, Leukemia Res. 23:373-384; cited from earlier work
[6] = BALB/c 28 days, SCID up to 55 days

## CO[C@H]1C[C@@H]2CC[C@@H](C)[C@@](O)(O2)C(=O)C(=O)N2CCCC[C@H]2C(=O)O[C@H]([C@H](C)C[C@@H]2CC[C@@H](OCCO)[C@H](OC)C2)CC(=O)[C@H](C)/C=C(\C)[C@@H](O)[C@@H](OC)C(=O)[C@H](C)C[C@H](C)/C=C/C=C/C=C/1C [SDZ RAD, 40-O-(2-hydroxy)ethyl-rapamycin]
[1]; [6]
  growth and weight gain vs control group: the same
  visible signs of drug toxicity: None of the treated mice
[1]; liver, spleen, kidney, intestines, heart, lung, bone marrow
  microscopic evaluation of organs: no pathologic changes
[1]; regardless of immune status
  adverse effect of prolonged exposure: no adverse effect
[2]; started at 5 millimeters tumor diameter
  effect on tumor growth: marked drug-induced delay of the tumor growth but no absolute tumor growth inhibition or regression
[2]; day 21, treated mice
  median tumor volume: approximately 240 cubic millimeters
[2]; day 38, treated mice
  tumor volume: around 1000 cubic millimeters
[3]; 5 milligrams per kilogram daily gavage
  treated mice with significant regression in the tumor volume: 6 out of 10
[3]; day 19, 5 milligrams per kilogram daily gavage, equal to initial tumor size
  average treated tumor volume: 50 cubic millimeters
[3]; day 53, subset of mice with regression
  median tumor volume: < 5 cubic millimeters
[4]; after day 21
  mice with steady regression on further treatment: all 8
[4]; day 21
  tumors showing any evidence of growth: 0/8
[4]; day 21, 5 milligrams per kilogram daily gavage
  median volume of the treated tumors: 50 cubic millimeters
[4]; day 53
  mean tumor volume: < 5 cubic millimeters
[4]; day 53, 8 treated mice
  mice in which no lymphoma could be detected (total tumor eradication): 4 and 4 out of 8
  mice with microscopically-confirmed residual lymphoma: 4
[5]
  response of cell lines to the drug: non-responsive
